Measurements: patent publication US20070059385A1, “Safe pharmaceutical composition for treating and preventing cancer and method of use” (priority 2005, published 2007)

Experiments:
TA98 = test: Salmonella mutagenicity assay TA98
Description: The method for detecting mutagenicity of HHT, with the Salmonella system that detects the reversion of the bacteria from His^− to His^+, is widely used.
The bacterial tester strains used for mutagenesis testing are TA97, TA98, TA100 and TA102. Mutagenesis testing method was done as described previously ^[77-88]. In brief, TA97, TA98, TA100 and TA102 were grown in agar gel culture. The petri plats (100×15 mm style) contain 30 ml with 2% glucose. The agar mixture was agitated vigorously and immediately poured into plates of minimal agar. The cultures were incubated at 37° C. in a dark and 5% CO2 in air for 48 hours. After 48 hours the colonies in both test and controls are counted. The presence of a background lawn of bacteria on the histidine-poor soft agar plate was used as an indication that gross toxic effects were absent. Mutagenicity assays were carried out at least in triplicate.
The range of spontaneous mutation rates for the individual strains, which were considered to be acceptable, was TA97 (100-170), TA98 (20-40) and TA100 (80-150).

kidney cell cultures = test: Analysis of chromosomes (chromosomal aberrations in kidney); type: in vivo
Description: For metaphase chromosomes, kidney cell cultures were treated with colchicines (0.4 μg/ml) for 3-4 hours. The cells were then trypsinized and treated with hypotonic solution (0.075 M KCl) at 37° C. for 30 minutes. The cell suspensions were centrifuged and the pellets fixed in cold acetic acid:methanol (1:3) solution. Slides were prepared by standard air-drying method and stained with 2% Giemsa solution. The results scored by analyzing at least 200 well spread metaphases with 44±2 chromosomes for gaps, chromatid and chromosome breaks and exchanges, and association. Chromatid and chromosome aberrations were scored separately, and the total percentage was subjected to statistical analysis. Gaps were recorded but not included in the total frequency. Endoreduplication (endomitosis) was estimated from at least 500 cells/animal and expressed as a percentage.

HL-60 cells = test: Induction of differentiation (NBT reduction) of human leukemic cells; type: cell-based; conditions: Mu, GU, MAT, IND 50 ng/ml, higher NBT (%) means higher normal cells
Description: HL-60 cells were established from a patient with acute myeloid leukemia. The cells were cultured in culture flasks with RPMI plus 10% FCS.
Differentiation of HL-60 cells was assessed by their abilities to produced superoxide as measured by reduction of NBT, by NSE staining and by morphology as detected on cytospin preparations stained with Diff-Quick stain Set, and by analysis of membrane-bound differentiation markers with two-color immunofluorescence. Briefly, cells were preincubated at 4° C. for 60 min in 10% human AB serum and then with FITC-conjugated mouse IgGI isotype control. Analysis of fluorescence was performed on a flow cytometer.
HL-60 cells were culture in a two-layer soft agar system for 10 days without adding any growth factors as described previously, and colonies were counted using an inverted microscope. The analogues were added to the agar upper layer on day 0. For analysis of the reversibility of inhibition of proliferation, the cells were cultured in suspension culture with and without HHT or other drugs. After 60 hours, the culture flasks were gently jarred to loosen adherent cells, the cells were washed twice in cultured medium containing 10% FCS to remove the test drugs, and then the clonogenic assay was performed. NBT% indicated percentage of normal cells.

Normal cells = test: Apoptosis of normal cells; type: cell-based
Description: Cells ([…] were incubated in 10 ml IMDM plus […] heat-inactivated fetal calf serum. Samples were incubated for 24 hours with various concentrations of drugs. Control samples received the same amount of media, without drug addition. After 24 hours of incubation the samples were pelleted and fixed in ethanol […] for 15 minutes at 4° C.; after three washes in PBS, the cells were treated with RNase I 0.5 mg/ml for 15 minutes at 37° C. The cells were harvested by centrifugation and resuspended in 50 μg/ml propidium iodide in PBS. Analysis (upon acquisition of 10,000-20,000 events) was performed on a FACscan flow cytometer with the FL2 detector in logarithmic mode, using Lysis II software (Becton Dickinson). Apoptotic cells were located in the hypodiploid region of the histogram, due to chromosome condensation and fragmentation.
For evaluation of apoptosis by flow cytometry, cells were fixed and permeabilized in 1% paraformaldehyde and ice-cold 70% ethanol. Digoxigenin-dUTP was incorporated at the 3′OH ends of the fragmented DNA in the presence of terminal deoxynucleotidyltranserase, and the cells were incubated with FITC-labeled anti-digoxigenin-dUTP and with propidium iodide. Green (apoptotic cells) and orange (total DNA) fluorescence were measured with a FACScan flow cytometer and analyzed with LYSIS II and CELLFIT programs. Data were analyzed by Student's t-test. P values were considered significant when <0.05. […]

[1] = duration of treatment 0.5 months
[2] = duration of treatment 1.0 months
[3] = duration of treatment 2.0 months
[4] = duration of treatment 3.0 months
[5] = duration of treatment 4.0 months
[6] = duration of treatment 5.0 months

With `COC(=O)C[C@](O)(CCCC(C)(C)O)C(=O)O[C@@H]1C(OC)=C[C@]23CCCN2CCc2cc4c(cc2[C@H]13)OCO4` [HHT, Homoharringtonine] the “Number of His^+ revertants/plate” value (TA98; TA98 +S, 0.1 μg/plate) was 34 ± 4 revertants/plate, the “Number of His^+ revertants/plate” value (TA98; TA98 +S, 1 μg/plate) was 32 ± 4 revertants/plate and the “Number of His^+ revertants/plate” value (TA98; TA98 +S, 10 μg/plate) was 36 ± 3 revertants/plate. For the same compound, the “Number of His^+ revertants/plate” value (TA98; TA98 +S, 100 μg/plate) was 34 ± 4 revertants/plate, the “Number of His^+ revertants/plate” value (TA98; TA98 −S, 0.1 μg/plate) was 29 ± 3 revertants/plate and the “Number of His^+ revertants/plate” value (TA98; TA98 −S, 1 μg/plate) was 30 ± 3 revertants/plate. For the same compound, the “Number of His^+ revertants/plate” value (TA98; TA98 −S, 10 μg/plate) was 38 ± 4 revertants/plate, the “Number of His^+ revertants/plate” value (TA98; TA98 −S, 100 μg/plate) was 32 ± 4 revertants/plate and the “% Aberrant cells (mean ± SEM)” value (kidney cell cultures; [1]) was 0.5 ± 0.1%. For the same compound, the “Aberration/100 cells, Chromosome Breaks” value (kidney cell cultures; [1]) was 0.1 /100 cells, the “% Aberrant cells (mean ± SEM)” value (kidney cell cultures; [2]) was 0.8 ± 0.2% and the “Aberration/100 cells, Chromosome Breaks” value (kidney cell cultures; [2]) was 0.5 /100 cells. The “% Aberrant cells (mean ± SEM)” value (kidney cell cultures; [3]) was 1.2 ± 0.4%, the “Aberration/100 cells, Chromosome Breaks” value (kidney cell cultures; [3]) was 0.7 /100 cells and the “Aberration/100 cells, Chromosome Exchanges” value (kidney cell cultures; [3]) was 0.1 /100 cells. For the same compound, the “% Aberrant cells (mean ± SEM)” value (kidney cell cultures; [4]) was 1.8 ± 0.7%, the “Aberration/100 cells, Chromosome Breaks” value (kidney cell cultures; [4]) was 0.9 /100 cells and the “% Aberrant cells (mean ± SEM)” value (kidney cell cultures; [5]) was 2.6 ± 0.8%. The “Aberration/100 cells, Chromosome Breaks” value (kidney cell cultures; [5]) was 1.2 /100 cells, the “Aberration/100 cells, Chromosome Exchanges” value (kidney cell cultures; [5]) was 0.1 /100 cells and the “% Aberrant cells (mean ± SEM)” value (kidney cell cultures; [6]) was 5.5 ± 0.5%. The “Aberration/100 cells, Chromosome Breaks” value (kidney cell cultures; [6]) was 1.3 /100 cells, the “Aberration/100 cells, Chromosome Exchanges” value (kidney cell cultures; [6]) was 0.2 /100 cells and the “NBT (%)” value (HL-60 cells) was 65 ± 7.0 %. The “Apoptosis (%)” value (Normal cells; HHT 10 ng/ml) was 16.5 ± 2.0 %, the “Apoptosis (%)” value (Normal cells; HHT 50 ng/ml) was 18.5 ± 2.5 % and the “Apoptosis (%)” value (Normal cells; HHT 100 ng/ml) was 22.0 ± 3.5 %. The “Apoptosis (%)” value (Normal cells; HHT 500 ng/ml) was 29.5 ± 5.2 % and the “Apoptosis (%)” value (Normal cells; Table 4, HHT (50 ng/ml) alone or in combination) was 18.5 ± 2.5%.
